Calls of active or inactive are those of the source. No cut-off for these calls is given here.
Experiments:
Amaranthus retroflexus [1] = assay: Post-emergence herbicidal activity against Amaranthus retroflexus assessed as mortality per 10 acre; type: functional
Ipomoea lacunosa [2] = assay: Post-emergence herbicidal activity against Ipomoea lacunosa assessed as mortality per 10 acre; type: functional
Zea mays [3] = assay: Pre-emergence phytotoxicity against Zea mays (maize) assessed as mortality at 1.6 g a.i/10 a; type: organism-based; conditions: in vivo, other
Echinochloa crus-galli [4] = assay: Pre-emergence herbicidal activity against Echinochloa crus-galli (barnyard grass) assessed as mortality per 10 acre; type: functional
Gossypium hirsutum [5] = assay: Post-emergence phytotoxicity against Gossypium hirsutum (cotton) assessed as mortality per 10 acre; type: organism-based; conditions: in vivo
Xanthium strumarium [6] = assay: Pre-emergence herbicidal activity against Xanthium strumarium (cocklebur) assessed as mortality per 10 acre; type: functional
Xanthium strumarium [7] = assay: Post-emergence herbicidal activity against Xanthium strumarium (cocklebur) assessed as mortality per 10 acre; type: functional
Gossypium hirsutum [8] = assay: Pre-emergence phytotoxicity against Gossypium hirsutum (cotton) assessed as mortality at 1.6 g a.i/10 a; type: organism-based; conditions: in vivo, other
Persicaria nodosa [9] = assay: Post-emergence herbicidal activity against Persicaria nodosa assessed as mortality per 10 acre; type: functional
Echinochloa crus-galli [10] = assay: Post-emergence herbicidal activity against Echinochloa crus-galli (barnyard grass) assessed as mortality per 10 acre; type: functional
Zea mays [11] = assay: Pre-emergence phytotoxicity against Zea mays (maize) assessed as mortality at 6.3 g a.i/10 a; type: organism-based; conditions: in vivo, other
Glycine max [12] = assay: (§1) Pre-emergence phytotoxicity against Glycine max (soybean) assessed as mortality at 6.3 g a.i/10 a; type: organism-based; conditions: in vivo, other
[13] = Post-emergence phytotoxicity against Gossypium hirsutum (cotton) assessed as mortality at 1.6 g a.i/10 a applied 11 days after germination as foliar spray; type: organism-based; conditions: in vivo, 1.6 g a.i/10 a
Zea mays [14] = assay: (§2) Post-emergence phytotoxicity against Zea mays (maize) assessed as mortality at 1.6 g a.i/10 a applied 11 days after germination as foliar spray; type: organism-based; conditions: in vivo, other, 264 h
Glycine max [15] = assay: Post-emergence phytotoxicity against Glycine max (soybean) assessed as mortality at 1.6 g a.i/10 a applied 11 days after germination as foliar spray; type: organism-based; conditions: in vivo, other, 264 h
Amaranthus retroflexus [16] = assay: Pre-emergence herbicidal activity against Amaranthus retroflexus assessed as mortality per 10 acre; type: functional
[17] = (§3) Post-emergence phytotoxicity against Gossypium hirsutum (cotton) assessed as mortality at 6.3 g a.i/10 a applied 11 days after germination as foliar spray; type: organism-based; conditions: in vivo, 6.3 g a.i/10 a
Glycine max [18] = assay: Post-emergence phytotoxicity against Glycine max (soybean) assessed as mortality at 6.3 g a.i/10 a applied 11 days after germination as foliar spray; type: organism-based; conditions: in vivo, other, 264 h
Gossypium hirsutum [19] = assay: Pre-emergence phytotoxicity against Gossypium hirsutum (cotton) assessed as mortality per 10 acre; type: organism-based; conditions: in vivo
Abutilon theophrasti = assay: Post-emergence herbicidal activity against Abutilon theophrasti (velvetleaf) assessed as mortality at 6.3 g a.i/10 a applied 11 days after germination as foliar spray; type: functional; conditions: 264 h
Glycine max [20] = assay: (§4) Pre-emergence phytotoxicity against Glycine max (soybean) assessed as mortality at 1.6 g a.i/10 a; type: organism-based; conditions: in vivo, other
Gossypium hirsutum [21] = assay: (§5) Pre-emergence phytotoxicity against Gossypium hirsutum (cotton) assessed as mortality at 6.3 g a.i/10 a; type: organism-based; conditions: in vivo, other
Ipomoea lacunosa [22] = assay: Pre-emergence herbicidal activity against Ipomoea lacunosa assessed as mortality per 10 acre; type: functional
Persicaria nodosa [23] = assay: Pre-emergence herbicidal activity against Persicaria nodosa assessed as mortality per 10 acre; type: functional
Amaranthus retroflexus [24] = assay: Post-emergence herbicidal activity against Amaranthus retroflexus assessed as growth inhibition at 25 g a.i/10 a applied 11 days after germination as foliar spray; type: functional, organism-based
Digitaria sanguinalis [25] = assay: Post-emergence herbicidal activity against Digitaria sanguinalis (hairy crabgrass) assessed as growth inhibition at 25 g a.i/10 a applied 11 days after germination as foliar spray; type: functional, organism-based
Echinochloa crus-galli [26] = assay: Post-emergence herbicidal activity against Echinochloa crus-galli (barnyard grass) assessed as growth inhibition at 25 g a.i/10 a applied 11 days after germination as foliar spray; type: functional, organism-based
Persicaria nodosa [27] = assay: Post-emergence herbicidal activity against Persicaria nodosa assessed as growth inhibition at 25 g a.i/10 a applied 11 days after germination as foliar spray; type: functional, organism-based
Ipomoea lacunosa [28] = assay: Post-emergence herbicidal activity against Ipomoea lacunosa assessed as mortality at 6.3 g a.i/10 a applied 11 days after germination as foliar spray; type: functional; conditions: 264 h
Digitaria sanguinalis [29] = assay: Pre-emergence herbicidal activity against Digitaria sanguinalis (hairy crabgrass) assessed as growth inhibition at 25 g a.i/10 a; type: functional, organism-based
Persicaria nodosa [30] = assay: Pre-emergence herbicidal activity against Persicaria nodosa assessed as growth inhibition at 25 g a.i/10 a; type: functional, organism-based
Ipomoea lacunosa [31] = assay: Pre-emergence herbicidal activity against Ipomoea lacunosa assessed as mortality at 6.3 g a.i/10 a; type: functional
Echinochloa crus-galli [32] = assay: Pre-emergence herbicidal activity against Echinochloa crus-galli (barnyard grass) assessed as growth inhibition at 25 g a.i/10 a; type: functional, organism-based
Chenopodium album [33] = assay: Post-emergence herbicidal activity against Chenopodium album assessed as growth inhibition at 25 g a.i/10 a applied 11 days after germination as foliar spray; type: functional, organism-based
Cyperus iria [34] = assay: Post-emergence herbicidal activity against Cyperus iria assessed as growth inhibition at 25 g a.i/10 a applied 11 days after germination as foliar spray; type: functional, organism-based
[35] = as §5; type: organism-based; conditions: in vivo, 6.3 g a.i/10 a, read-out: Activity
Cyperus iria [36] = assay: Pre-emergence herbicidal activity against Cyperus iria assessed as growth inhibition at 25 g a.i/10 a; type: functional, organism-based
Ipomoea lacunosa [37] = assay: Pre-emergence herbicidal activity against Ipomoea lacunosa assessed as mortality at 1.6 g a.i/10 a; type: functional
Chenopodium album [38] = assay: Pre-emergence herbicidal activity against Chenopodium album assessed as growth inhibition at 25 g a.i/10 a; type: functional, organism-based
Xanthium strumarium [39] = assay: Pre-emergence herbicidal activity against Xanthium strumarium (cocklebur) assessed as mortality at 1.6 g a.i/10 a; type: functional
Amaranthus retroflexus [40] = assay: Pre-emergence herbicidal activity against Amaranthus retroflexus assessed as growth inhibition at 25 g a.i/10 a; type: functional, organism-based
[41] = as §1; type: organism-based; conditions: in vivo, 6.3 g a.i/10 a, read-out: Activity
Echinochloa crus-galli [42] = assay: Post-emergence herbicidal activity against Echinochloa crus-galli (barnyard grass) assessed as mortality at 6.3 g a.i/10 a applied 11 days after germination as foliar spray; type: functional; conditions: 264 h
Xanthium strumarium [43] = assay: Pre-emergence herbicidal activity against Xanthium strumarium (cocklebur) assessed as mortality at 6.3 g a.i/10 a; type: functional
Gossypium hirsutum [44] = assay: as §3; type: organism-based; conditions: in vivo, other, 264 h
[45] = as §4; type: organism-based; conditions: in vivo, 1.6 g a.i/10 a, read-out: Activity
[46] = as §2; type: organism-based; conditions: in vivo, 1.6 g a.i/10 a

Compound	ED90 (Amaranthus retroflexus [1])	ED90 (Ipomoea lacunosa [2])	Activity (Zea mays [3])	ED90 (Echinochloa crus-galli [4])	ED20 (Gossypium hirsutum [5])	ED90 (Xanthium strumarium [6])	ED90 (Xanthium strumarium [7])	Activity (Gossypium hirsutum [8])	Activity (Zea mays [11])	Activity (Glycine max [12])	mortality at 264 h [13]	Activity (Zea mays [14])	Activity (Glycine max [15])	mortality at 264 h [17]	Activity (Glycine max [18])	mortality at 63 g/ha (Abutilon theophrasti)	Activity (Glycine max [20])	mortality [35]	Activity (Ipomoea lacunosa [37])	Activity (Xanthium strumarium [39])	other results
COc1cc(OC)nc(Sc2cccc(Br)c2C(=O)O)n1	1.5 gAi	Active	Toxic	25 gAi	50 gAi	25 gAi	Active	< 50%	Toxic	Toxic	< 5%	Toxic	Toxic	< 5%	Toxic	> 90%	Toxic	–	–	–	ED90 (Persicaria nodosa [9]): 1.5 gAi; ED90 (Echinochloa crus-galli [10]): 25 gAi; ED90 (Amaranthus retroflexus [16]): 1.5 gAi; ED20 (Gossypium hirsutum [19]): 50 gAi; Activity (Gossypium hirsutum [21]): Non-toxic; ED90 (Ipomoea lacunosa [22]): 25 gAi; ED90 (Persicaria nodosa [23]): inactive
COc1cc(OC)nc(Sc2cccc(Cl)c2C(=O)O)n1 [PYRITHIOBAC]	1.5 gAi	inactive	Toxic	25 gAi	50 gAi	25 gAi	Active	< 50%	Toxic	Non-toxic	< 5%	Toxic	Toxic	< 5%	–	> 90%	Non-toxic	< 50%	<50%	<50%	growth inhibition (GI) (Amaranthus retroflexus [24]): Active; growth inhibition (GI) (Digitaria sanguinalis [25]): Active; growth inhibition (GI) (Echinochloa crus-galli [26]): Active; growth inhibition (GI) (Persicaria nodosa [27]): Active; ED90 (Persicaria nodosa [9]): 1.5 gAi; ED90 (Echinochloa crus-galli [10]): 25 gAi; mortality at 63 g/ha (Ipomoea lacunosa [28]): > 90%; growth inhibition (GI) (Digitaria sanguinalis [29]): Active; growth inhibition (GI) (Persicaria nodosa [30]): Active; ED90 (Amaranthus retroflexus [16]): 1.5 gAi; Activity (Ipomoea lacunosa [31]): <50%; growth inhibition (GI) (Echinochloa crus-galli [32]): Active; ED20 (Gossypium hirsutum [19]): 50 gAi; growth inhibition (GI) (Chenopodium album [33]): Active; growth inhibition (GI) (Cyperus iria [34]): Active; growth inhibition (GI) (Cyperus iria [36]): Active; growth inhibition (GI) (Chenopodium album [38]): Active; ED90 (Ipomoea lacunosa [22]): 25 gAi; ED90 (Persicaria nodosa [23]): inactive; growth inhibition (GI) (Amaranthus retroflexus [40]): Active
COc1cc(OC)nc(Sc2cccc(C(C)=O)c2C(=O)O)n1	–	–	Non-toxic	–	–	–	–	< 50%	Toxic	–	< 5%	Toxic	Non-toxic	–	Non-toxic	–	–	< 50%	<50%	<50%	mortality [41]: < 50%; mortality at 63 g/ha (Echinochloa crus-galli [42]): > 90%; Activity (Xanthium strumarium [43]): <50%; Activity (Gossypium hirsutum [44]): Non-toxic; Activity (Ipomoea lacunosa [31]): <50%; mortality [45]: < 50%
COc1cc(OC)nc(Sc2cccc(I)c2C(=O)O)n1	–	–	Toxic	–	–	–	–	< 50%	> 90%	Toxic	< 5%	–	Toxic	< 5%	Toxic	> 90%	Non-toxic	< 50%	<50%	<50%	mortality at 264 h [46]: > 90%

From ChEMBL document CHEMBL3046894, “Synthesis and Herbicidal Activity of Pyrimidinyl Salicylic and Thiosalicylic Acids” (J Pestic Sci, 1996)
